The record followed here is PubChem BioAssay AID264 (DTP/NCI, 2004).

The test concerns nude mice, LX-1 lung xenograft intrarenal, tumor weight T/C. The test can be described thus: NCI In Vivo Anticancer Drug Screen. Data for tumor model Human Lung LX-1 Xenograft (intrarenal inoculation) in NU/NU Swiss (nude) mice. The conditions noted are these: endpoint: mean tumor weight change, higher = larger tumour. The method in brief: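 Antitumor effect is expressed as a ratio: the mean tumor measurement of the drug-treated group relative to that of the vehicle-dosed control group.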
For orientation: In xenograft studies the graft and the host belong to different species.

Where [1] appears, read: dose: 15.0 mg/kg/injection, schedule: Q04DX003 (sc), vehicle: saline.
Where [2] appears, read: dose: 100.0 mg/kg/injection, schedule: Q01DX010 (sc), vehicle: saline.
[3] abbreviates: dose: 200.0 mg/kg/injection, schedule: Q01DX010 (sc), vehicle: saline.
Setting [4] is: dose: 400.0 mg/kg/injection, schedule: Q01DX010 (sc), vehicle: saline.
Setting [5] is: dose: 800.0 mg/kg/injection, schedule: Q01DX010 (sc), vehicle: saline.
[6] abbreviates: dose: 150.0 mg/kg/injection, schedule: Q04DX003 (sc), vehicle: Klucel (hydroxypropylcellulose) (HPC).
The mark [7] stands for this setting: dose: 300.0 mg/kg/injection, schedule: Q04DX003 (sc), vehicle: Klucel (hydroxypropylcellulose) (HPC).
[8] abbreviates: dose: 1200.0 mg/kg/injection, schedule: Q04DX003 (sc), vehicle: Klucel (hydroxypropylcellulose) (HPC).

SMILES strings stand for the structures. Several values for one entry are separate records, joined by “and”; a condition that tells them apart may be missing. Equal entries are not always repeated. Records with an inconclusive call do not appear. Bridge positions count the residues as written; N and C are the ends. Square brackets hold non-standard residues; d marks the D form. Peptide text beside a SMILES is read from it. I, II: the chains in the order shown. * marks the point of attachment. Quinoxaline2carbonyl = O=C(c1cnc2ccccc2n1)*; NMeV = CN[CH](C(=O)O)C(C)C; NMeC = CN[CH](CS)C(=O)O

In the case of `Nc1ncnc2c1ncn2C1C=C(CO)C(O)C1O` (configuration not stated), the T/C (dose: 3.75 mg/kg/injection, schedule: Q04DX003 (sc), vehicle: saline) is 49 % of control; the T/C (dose: 7.5 mg/kg/injection, schedule: Q04DX003 (sc), vehicle: saline) was 70 % of control; the T/C under setting [1] is 58 % of control.

As for `C[C@H](N)C(=O)N[C@@H]1[C@H]2C(=C(O)C[C@@H](O)[C@@H]2O)C(=O)O[C@@H]1C`, the T/C reads like this: (dose: 300.0 mg/kg/injection, schedule: Q04DX003 (sc), vehicle: saline) 113 % of control; (dose: 600.0 mg/kg/injection, schedule: Q04DX003 (sc), vehicle: saline) 160 % of control; (dose: 900.0 mg/kg/injection, schedule: Q04DX003 (sc), vehicle: saline) 54 % of control; (dose: 1200.0 mg/kg/injection, schedule: Q04DX003 (sc), vehicle: saline) 92 % of control and 115 % of control; (dose: 1800.0 mg/kg/injection, schedule: Q04DX003 (sc), vehicle: saline) 78 % of control.

`Cn1cnc([N+](=O)[O-])c1SCC(=O)O`: the T/C was 71 % of control under setting [2], 83 % of control under setting [3], 103 % of control under setting [4] and 66 % of control under setting [5].

As for `[I][Hg][CH2]C1COC([CH2][Hg][I])CO1` (configuration not stated), the T/C was 105 % of control (dose: 150.0 mg/kg/injection, schedule: Q04DX003 (sc), vehicle: saline with Tween-80); 97 % of control (dose: 300.0 mg/kg/injection, schedule: Q04DX003 (sc), vehicle: saline with Tween-80); 80 % of control (dose: 600.0 mg/kg/injection, schedule: Q04DX003 (sc), vehicle: saline with Tween-80); 97 % of control (dose: 1200.0 mg/kg/injection, schedule: Q04DX003 (sc), vehicle: saline with Tween-80).

As to `COc1cc(C)c2c(c1C=O)Oc1c(c(C)c(O)c3c1C(O)OC3=O)OC2=O` (configuration not stated), the T/C is 95 % of control (dose: 12.5 mg/kg/injection, schedule: Q01DX010 (sc), vehicle: saline); 103 % of control (dose: 25.0 mg/kg/injection, schedule: Q01DX010 (sc), vehicle: saline); 59 % of control (dose: 50.0 mg/kg/injection, schedule: Q01DX010 (sc), vehicle: saline); 32 % of control under setting [2].

Turning to `OCC1OC(n2cnc3c(Cl)ncnc32)C(O)C1O` (configuration not stated), the T/C by setting is: under setting [2], 74 % of control; under setting [3], 96 % of control and 103 % of control; under setting [4], 80 % of control and 99 % of control; under setting [5], 112 % of control.

Turning to `Cc1cc(Nc2ccc3c(c2)OCO3)c2cc3c(cc2n1)OCO3`, the T/C is 113 % of control under setting [6], 155 % of control under setting [7] and 123 % of control under setting [8].

As to `O=c1n(CC2CO2)c(=O)n(CC2CO2)n1CC1CO1` (configuration not stated), the T/C reads like this: (dose: 12.5 mg/kg/injection, schedule: Q04DX003 (sc), vehicle: saline) 74 % of control; (dose: 25.0 mg/kg/injection, schedule: Q04DX003 (sc), vehicle: saline) 77 % of control.

With `COc1cccc2c1C(=O)c1c(O)c3c(c(O)c1C2=O)C[C@@](O)(/C(CO)=N/NC(=O)c1ccc(Cl)c(Cl)c1)C[C@@H]3OC1CC(N)C(O)C(C)O1` (some centres not stated), the T/C is 28 % of control (dose: 8.0 mg/kg/injection, schedule: Q01DX010 (sc), vehicle: water); 2 % of control (dose: 16.0 mg/kg/injection, schedule: Q01DX010 (sc), vehicle: water); 54 % of control (dose: 24.0 mg/kg/injection, schedule: Q04DX003 (sc), vehicle: water); 66 % of control (dose: 48.0 mg/kg/injection, schedule: Q04DX003 (sc), vehicle: water); 33 % of control (dose: 96.0 mg/kg/injection, schedule: Q04DX003 (sc), vehicle: water); 30 % of control (dose: 192.0 mg/kg/injection, schedule: Q04DX003 (sc), vehicle: water).

For `CCC/C=C/C=C/C(=O)OC1/C(=C/C(=O)OC)CC2CC(C(C)O)OC(=O)CC(O)CC3CC(OC(C)=O)C(C)(C)C(O)(CC4C/C(=C/C(=O)OC)CC(/C=C/C(C)(C)C1(O)O2)O4)O3` (configuration not stated), the T/C is, setting by setting: (dose: 0.25 mg/kg/injection, schedule: Q04DX003 (sc), vehicle: saline + alcohol) 112 % of control; (dose: 0.5 mg/kg/injection, schedule: Q04DX003 (sc), vehicle: saline + alcohol) 96 % of control; (dose: 1.0 mg/kg/injection, schedule: Q04DX003 (ip), vehicle: saline + alcohol) 96 % of control; (dose: 1.0 mg/kg/injection, schedule: Q04DX003 (sc), vehicle: saline + alcohol) 59 % of control; (dose: 2.0 mg/kg/injection, schedule: Q04DX003 (ip), vehicle: saline + alcohol) 119 % of control; (dose: 2.0 mg/kg/injection, schedule: Q04DX003 (sc), vehicle: saline + alcohol) 27 % of control and 40 % of control. Besides, the T/C by setting is: (dose: 4.0 mg/kg/injection, schedule: Q04DX003 (ip), vehicle: saline + alcohol) 76 % of control; (dose: 8.0 mg/kg/injection, schedule: Q04DX003 (ip), vehicle: saline + alcohol) 81 % of control; (dose: 8.0 mg/kg/injection, schedule: Q04DX003 (sc), vehicle: saline + alcohol) 16 % of control; (dose: 10.0 mg/kg/injection, schedule: Q04DX003 (ip), vehicle: saline + alcohol) 93 % of control.

As for `O=NN(CCF)C(=O)NC1CCCCC1`, the T/C reads like this: (dose: 6.25 mg/kg/injection, schedule: Q04DX003 (sc), vehicle: Klucel (hydroxypropylcellulose) (HPC)) 66 % of control; (dose: 12.5 mg/kg/injection, schedule: Q04DX003 (sc), vehicle: Klucel (hydroxypropylcellulose) (HPC)) 39 % of control.

Regarding `CC(=O)Oc1c(C)[nH]ccc1=O`, the T/C is, setting by setting: (dose: 300.0 mg/kg/injection, schedule: Q04DX003 (sc), vehicle: suspension in saline) 73 % of control; (dose: 600.0 mg/kg/injection, schedule: Q04DX003 (sc), vehicle: suspension in saline) 65 % of control.

For `NCCCC(N)(C(=O)O)C(F)F` (configuration not stated), the T/C reads like this: (dose: 300.0 mg/kg/injection, schedule: Q04DX003 (sc), vehicle: distilled water + alcohol) 101 % of control; (dose: 600.0 mg/kg/injection, schedule: Q04DX003 (sc), vehicle: distilled water + alcohol) 87 % of control; (dose: 1200.0 mg/kg/injection, schedule: Q04DX003 (sc), vehicle: distilled water + alcohol) 82 % of control; (dose: 2400.0 mg/kg/injection, schedule: Q04DX003 (sc), vehicle: distilled water + alcohol) 92 % of control.

Regarding `CC1NC(=O)C(NC(=O)c2cnc3ccccc3n2)COC(=O)C(C(C)C)N(C)C(=O)C2CSSCC(C(=O)N(C)C(C(C)C)C(=O)OCC(NC(=O)c3cnc4ccccc4n3)C(=O)NC(C)C(=O)N2C)N(C)C1=O` (configuration not stated) (I: Quinoxaline2carbonyl-SA[NMeC][NMeV] / II: Quinoxaline2carbonyl-SA[NMeC][NMeV]; ester I:1-II:C, I:C-II:1; disulfide I:3-II:3; configuration not given here), the T/C (dose: 100.0 micrograms/kg/injection, schedule: Q04DX003 (sc), vehicle: Klucel (hydroxypropylcellulose) (HPC)) is 104 % of control; the T/C (dose: 200.0 micrograms/kg/injection, schedule: Q04DX003 (sc), vehicle: Klucel (hydroxypropylcellulose) (HPC)) is 83 % of control; the T/C (dose: 400.0 micrograms/kg/injection, schedule: Q04DX003 (sc), vehicle: Klucel (hydroxypropylcellulose) (HPC)) is 54 % of control.

Turning to `Oc1c(Cl)cc(Cl)cc1C1N2CCCCC2C2c3cccn3-c3ccccc3N21` (configuration not stated), the T/C is, setting by setting: under setting [6], 65 % of control; under setting [7], 69 % of control; under setting [8], 74 % of control.

Take `OC(CBr)C(O)C(O)C(O)CBr` (configuration not stated): the T/C (dose: 15.0 mg/kg/injection, schedule: Q01DX010 (sc), vehicle: Klucel (hydroxypropylcellulose) (HPC)) was 112 % of control; the T/C (dose: 60.0 mg/kg/injection, schedule: Q01DX010 (sc), vehicle: Klucel (hydroxypropylcellulose) (HPC)) was 57 % of control; the T/C (dose: 200.0 mg/kg/injection, schedule: Q01DX010 (sc), vehicle: Klucel (hydroxypropylcellulose) (HPC)) is 89 % of control; the T/C (dose: 400.0 mg/kg/injection, schedule: Q01DX010 (sc), vehicle: Klucel (hydroxypropylcellulose) (HPC)) was 96 % of control; the T/C (dose: 800.0 mg/kg/injection, schedule: Q01DX010 (sc), vehicle: Klucel (hydroxypropylcellulose) (HPC)) is 115 % of control.

As to `CC[n+]1c(-c2ccccc2)c2cc(N)ccc2c2ccc(N)cc21`, the T/C is 80 % of control under setting [1]; 81 % of control (dose: 30.0 mg/kg/injection, schedule: Q04DX003 (sc), vehicle: saline); 33 % of control (dose: 60.0 mg/kg/injection, schedule: Q04DX003 (sc), vehicle: saline).
